In patent US8178727B2, “Bis(arylmethylidene)acetone compound, anti-cancer agent, carcinogenesis-preventive agent, inhibitor of expression of Ki-Ras, ErbB2, c-Myc and Cycline D1, β-catenin-degrading agent, and p53 expression enhancer” (National University Corporation Tohoku University, priority 2005, dated 2012):

Compound	melting point
O=C(/C=C/c1ccc2ccccc2c1)/C=C/c1ccc2ccccc2c1 [GO-Y011, (1E,4E)-1,5-dinaphthalen-2-yl-penta-1,4-dien-3-one]	244 to 246 °C
COCCOCOc1c(OC)cc(/C=C/C(=O)/C=C/c2cc(OC)c(OCOCCOC)c(OC)c2)cc1OC [GO-Y039, (1E,4E)-1,5-bis-(3,5-dimethoxy-4-methoxyethoxymethoxyphenyl)penta-1,4-dien-3-one]	61 to 63 °C
C#CCOc1c(OC)cc(/C=C/C(=O)/C=C/c2cc(OC)c(OCC#C)c(OC)c2)cc1OC [GO-Y048, (1E,4E)-1,5-bis-(3,5-dimethoxy-4-prop-2-ynyloxyphenyl)penta-1,4-dien-3-one]	162 to 164 °C
C#CCOc1c(OC)cc(/C=C/C(=O)/C=C/c2cc(OC)c(OC)c(OC)c2)cc1OC [GO-Y060, (1E,4E)-1-(3,5-dimethoxy-4-prop-2-ynyloxyphenyl)-5-(3,4,5-trimethoxyphenyl)penta-1,4-dien-3-one]	118 to 120 °C
COc1cc(/C=C/C(=O)/C=C/c2cc(OC)c(OCCN=[N+]=[N-])c(OC)c2)cc(OC)c1OCCN=[N+]=[N-] [GO-Y065, (1E,4E)-1,5-bis-[4-(2-azidoethoxy)-3,5-dimethoxyphenyl]penta-1,4-dien-3-one]	107 to 109 °C

Other lines, results leading:

melting point	Compound
298 to 300 °C (dec.)	O=C(/C=C/c1cc(O)cc(O)c1)/C=C/c1cc(O)cc(O)c1 (hydrate or solvate) [GO-Y038, (1E,4E)-1,5-bis-(3,5-dihydroxyphenyl)penta-1,4-dien-3-one]
181 to 183 °C	COc1cc(Br)cc(/C=C/C(=O)/C=C/c2cc(Br)cc(OC)c2)c1 [GO-033, (1E,4E)-1,5-bis-(3-bromo-5-methoxyphenyl)penta-1,4-dien-3-one]
195 to 197 °C	COc1ccc(/C=C/C(=O)/C=C/c2ccc(OC)c(O)c2)cc1O [GO-Y023, (1E,4E)-1,5-bis-(3-hydroxy-4-methoxyphenyl)penta-1,4-dien-3-one]
166 to 168 °C	COc1cc(/C=C/C(=O)/C=C/c2cc(OC)c(O)c(OC)c2)cc(OC)c1O [GO-Y026, (1E,4E)-1,5-bis-(4-hydroxy-3,5-dimethoxyphenyl)penta-1,4-dien-3-one]
133 to 135 °C	COc1cc(/C=C/C(=O)/C=C/c2cc(OC)c(OCCO)c(OC)c2)cc(OC)c1OCCO [GO-Y044, (1E,4E)-1,5-bis-[4-(2-hydroxyethoxy)-3,5-dimethoxyphenyl]penta-1,4-dien-3-one]
